Where a name gives a salt, the structure may show the parent alone. Where only a bound is given, the exact number is not on record here.

Chain of purified CK2α enzyme (P68400 whole entry): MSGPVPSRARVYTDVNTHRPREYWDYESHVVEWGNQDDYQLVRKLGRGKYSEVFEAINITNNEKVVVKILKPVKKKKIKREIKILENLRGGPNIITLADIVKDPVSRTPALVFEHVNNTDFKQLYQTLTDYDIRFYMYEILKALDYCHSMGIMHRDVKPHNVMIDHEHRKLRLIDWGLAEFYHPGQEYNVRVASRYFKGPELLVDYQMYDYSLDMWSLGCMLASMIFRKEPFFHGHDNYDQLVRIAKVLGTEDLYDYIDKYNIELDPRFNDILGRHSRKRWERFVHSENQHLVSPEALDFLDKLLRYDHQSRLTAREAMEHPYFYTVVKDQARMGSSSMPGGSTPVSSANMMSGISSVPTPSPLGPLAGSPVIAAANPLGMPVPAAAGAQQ

This test has as its target purified CK2α enzyme (Homo sapiens, UniProt P68400). The experiment in a line: CK2 Protein Kinase Inhibition Assay (coupled PK/LDH assay). The test is classed as biochemical. As to conditions: CK2 enzyme 25 nM, 100 μM ATP, 37° C., Morrison equation. The protocol: A coupled PK (pyruvate kinase)/LDH (lactate dehydrogenase) assay was used to measure compounds' ability to inhibit purified CK2α enzyme.
The ADP product of kinase CK2a is the cofactor for PK. Phospho(enol)pyruvate (PEP) PEP is metabolized by pyruvate kinase to yield pyruvate, which is the substrate for LDH.
Serially diluted compounds were pre-incubated for 10 min at 37° C. with and 1.5 mM […] peptide substrate, 6 U/ml PK and 10 U/ml LDH (purchased from Sigma-Aldrich), 100 μM ATP, 1.2 mM NADH, 4 mM PEP in the reaction buffer (50 mM Tris (pH 8.25), 0.1 M NaCl, 10 mM magnesium acetate). The reaction was initiated by the addition of an equal volume of purified CK2 enzyme (final concentration 25 nM) diluted in the reaction buffer. Absorbance at 340 nm was measured overtime (for 30 min) at 37° C.; as NADH was converted to NAD+ the absorbance decreases. Absorbance decrease rate (per min) was plotted against the compound concentration and Ki is determined by GraphPad Prism using Morrison equation. All data points were performed in triplicate and each compound was tested in at least two separate experiments.
To this end, K, values of less than 2.5 nM are labelled as “+++”, from 2.5 nM to 10 nM are labelled as “++”, and greater than 10 nM are labelled as “+”.
As usually defined, the Ki is a measure of affinity in units of concentration, obtained from inhibition or displacement. Lower therefore signals higher affinity. `C[S+]([O-])Cc1cc(Nc2cc(Nc3ccccn3)n3ncc(C#N)c3n2)ccc1C1CC1` (racemic) [Example 54, (±)-5-((4-Cyclopropyl-3-((methylsulfinyl)methyl)phenyl)amino)-7-(pyridin-2-ylamino)pyrazolo[1,5-a]pyrimidine-3-carbonitrile] displayed a Ki below 2.5 nM. In the case of `C[S+]([O-])Cc1cc(Nc2cc(Nc3cccnc3)n3ncc(C#N)c3n2)ccc1C1CC1` (racemic) [Example 55, (±)-5-((4-Cyclopropyl-3-((methylsulfinyl)methyl)phenyl)amino)-7-(pyridin-3-ylamino)pyrazolo[1,5-a]pyrimidine-3-carbonitrile], the Ki was below 2.5 nM. To `C[S+]([O-])Cc1cc(Nc2cc(Nc3ccc(N)nc3)n3ncc(C#N)c3n2)ccc1C1CC1` (racemic) [Example 56, (±)-7-((6-Aminopyridin-3-yl)amino)-5-((4-cyclopropyl-3-((methylsulfinyl)methyl)phenyl)amino)pyrazolo[1,5-a]pyrimidine-3-carbonitrile] belongs below 2.5 nM; to `C[S+]([O-])Cc1cc(Nc2cc(Nc3ccc(N)cn3)n3ncc(C#N)c3n2)ccc1C1CC1` (racemic) [Example 57, (±)-7-((5-Aminopyridin-2-yl)amino)-5-((4-cyclopropyl-3-((methylsulfinyl)methyl)phenyl)amino)pyrazolo[1,5-a]pyrimidine-3-carbonitrile], below 2.5 nM; to `CC(N)c1ccc(Nc2cc(NC3CC3)n3ncc(C#N)c3n2)cc1C[S+](C)[O-]` (racemic) [Example 58, (±)-5-((4-((R,S)-1-Aminoethyl)-3-((methylsulfinyl)methyl)phenyl)amino)-7-(cyclopropylamino)pyrazolo[1,5-a]pyrimidine-3-carbonitrile mono trifluoroacetic acid salt], 2.5 to 10 nM. `C[S+]([O-])Cc1cc(Nc2cc(NC3CC3)n3ncc(C#N)c3n2)ccc1C1(N)CC1` (racemic) [Example 59, (±)-5-((4-(1-Aminocyclopropyl)-3-((methylsulfinyl)methyl)phenyl)amino)-7-(cyclopropylamino)pyrazolo[1,5-a]pyrimidine-3-carbonitrile mono trifluoroacetic acid salt] yielded a Ki of 2.5 to 10 nM.

For the compound `C/C(=C\CN)c1ccc(Nc2cc(NC3CC3)n3ncc(C#N)c3n2)cc1C[S+](C)[O-]` (racemic) [Example 60, (±)-(E)-5-((4-(4-aminobut-2-en-2-yl)-3-((methylsulfinyl)methyl)phenyl)amino)-7-(cyclopropylamino)pyrazolo[1,5-a]pyrimidine-3-carbonitrile mono trifluoroacetic acid salt], the Ki is below 2.5 nM.

In the case of `C[S+]([O-])Cc1cc(Nc2cc(NC3CC3)n3ncc(C#N)c3n2)ccc1C1CCCNC1` (racemic) [Example 61, (±)-7-(Cyclopropylamino)-5-((3-((methylsulfinyl)methyl)-4-((R,S)-piperidin-3-yl)phenyl)amino)pyrazolo[1,5-a]pyrimidine-3-carbonitrile mono trifluoroacetic acid salt], the Ki is 2.5 to 10 nM. For the compound `C[S+]([O-])Cc1cc(Nc2cc(NC3CC3)n3ncc(C#N)c3n2)ccc1C1=CCNC1` (racemic) [Example 62, (±)-7-(Cyclopropylamino)-5-((4-(2,5-dihydro-1H-pyrrol-3-yl)-3-((methylsulfinyl)methyl)phenyl)amino)pyrazolo[1,5-a]pyrimidine-3-carbonitrile mono trifluoroacetic acid salt], the Ki was 2.5 to 10 nM.

In turn, `C[S+]([O-])Cc1cc(Nc2cc(NC3CC3)n3ncc(C#N)c3n2)ccc1C1CCNC1` (racemic) [Example 63, (±)-7-(Cyclopropylamino)-5-((3-((methylsulfinyl)methyl)-4-((R,S)-pyrrolidin-3-yl)phenyl)amino)pyrazolo[1,5-a]pyrimidine-3-carbonitrile mono trifluoroacetic acid salt] returned a Ki of 2.5 to 10 nM. `CC(CCN)c1ccc(Nc2cc(NC3CC3)n3ncc(C#N)c3n2)cc1C[S+](C)[O-]` (racemic) [Example 64, (±)-5-((4-(R,S)-4-Aminobutan-2-yl)-3-((methylsulfinyl)methyl)phenyl)amino)-7-(cyclopropylamino)pyrazolo[1,5-a]pyrimidine-3-carbonitrile mono trifluoroacetic acid salt] came in with a Ki of 2.5 to 10 nM. To `CN(CC1(N)CC1)c1ccc(Nc2cc(NC3CC3)n3ncc(C#N)c3n2)cc1C[S+](C)[O-]` (racemic) [Example 65, (±)-5-((4-(((1-Aminocyclopropyl)methyl)(methyl)amino)-3-((methylsulfinyl)methyl)phenyl)amino)-7-(cyclopropylamino)pyrazolo[1,5-a]pyrimidine-3-carbonitrile mono trifluoroacetic acid salt] belongs below 2.5 nM.

In the case of `CN(CC(C)(C)N)c1ccc(Nc2cc(NC3CC3)n3ncc(C#N)c3n2)cc1C[S+](C)[O-]` (racemic) [Example 67, (±)-5-((4-((2-Amino-2-methylpropyl)(methyl)amino)-3-((methylsulfinyl)methyl)phenyl)amino)-7-(cyclopropylamino)pyrazolo[1,5-a]pyrimidine-3-carbonitrile mono trifluoroacetic acid salt], the Ki was below 2.5 nM. In turn, `C[S+]([O-])Cc1cc(Nc2cc(Nc3ccc(N)cn3)n3ncc(C#N)c3n2)ccc1N1CC[C@H](N)C1` (mixture of isomers) [Example 68, (±)-7-((5-Aminopyridin-2-yl)amino)-5-((4-((S)-3-aminopyrrolidin-1-yl)-3-((methylsulfinyl)methyl)phenyl)amino)pyrazolo[1,5-a]pyrimidine-3-carbonitrile] showed a Ki below 2.5 nM. Consider `CN(C)Cc1ccc(Nc2cc(Nc3ccc(C4CC4)c(C[S+](C)[O-])c3)nc3c(C#N)cnn23)nc1` (racemic) [Example 69, (±)-5-((4-Cyclopropyl-3-((methylsulfinyl)methyl)phenyl)amino)-7-((5-((dimethylamino)methyl)pyridin-2-yl)amino)pyrazolo[1,5-a]pyrimidine-3-carbonitrile], for which the Ki was below 2.5 nM. In turn, `CS(=O)(=O)Cc1cc(Nc2cc(NC3CC3)n3ncc(C#N)c3n2)ccc1Cl` [Example 2, 5-((4-Chloro-3-((methylsulfonyl)methyl)phenyl)amino)-7-(cyclopropylamino)pyrazolo[1,5-a]pyrimidine-3-carbonitrile] gave a Ki below 2.5 nM. Turning to `C[S@@+]([O-])Cc1cc(Nc2cc(NC3CC3)n3ncc(C#N)c3n2)ccc1Cl` [Example 4, (R)(−)-5-((4-Chloro-3-((methylsulfinyl)methyl)phenyl)amino)-7-(cyclopropylamino)pyrazolo[1,5-a]pyrimidine-3-carbonitrile], the Ki lay in the range of 2.5 to 10 nM. In the case of `CS(=O)(=O)Cc1cc(Nc2cc(NC3CC3)n3ncc(C#N)c3n2)ccc1C#N` [Example 9, 5-((4-Cyano-3-((methylsulfonyl)methyl)phenyl)amino)-7-(cyclopropylamino)pyrazolo[1,5-a]pyrimidine-3-carbonitrile] it was below 2.5 nM; in that of `CN(CCN)c1ccc(Nc2cc(NC3CC3)n3ncc(C#N)c3n2)cc1CS(C)(=O)=O` [Example 10, 5-((4-((2-Aminoethyl)(methyl)amino)-3-((methylsulfonyl)methyl)phenyl)amino)-7-(cyclopropylamino)pyrazolo[1,5-a]pyrimidine-3-carbonitrile mono trifluoroacetic acid salt], below 2.5 nM; in that of `CS(=O)(=O)Cc1cc(Nc2cc(NC3CC3)n3ncc(C#N)c3n2)ccc1CCN` [Example 11, 5-((4-(2-Aminoethyl)-3-((methylsulfonyl)methyl)phenyl)amino)-7-(cyclopropylamino)pyrazolo[1,5-a]pyrimidine-3-carbonitrile mono trifluoroacetic acid salt], below 2.5 nM. In the case of `C[S+]([O-])Cc1cc(Nc2cc(NC3CC3)n3ncc(C#N)c3n2)ccc1N1CC[C@@H](N)C1` (stereo partly drawn) [Example 22, 5-((4-((R)-3-Aminopyrrolidin-1-yl)-3-(((R,S)-methylsulfinyl)methyl)phenyl)amino)-7-(cyclopropylamino)pyrazolo[1,5-a]pyrimidine-3-carbonitrile mono trifluoroacetic acid salt] it was below 2.5 nM; in that of `C[S+]([O-])Cc1cc(Nc2cc(NC3CC3)n3ncc(C#N)c3n2)ccc1N1CC[C@H](N)C1` (stereo partly drawn) [Example 23, 5-((4-((S)-3-Aminopyrrolidin-1-yl)-3-(((R,S)-methylsulfinyl)methyl)phenyl)amino)-7-(cyclopropylamino)pyrazolo[1,5-a]pyrimidine-3-carbonitrile mono trifluoroacetic acid salt], below 2.5 nM.

Consider `C[S+]([O-])Cc1cc(Nc2cc(NC3CC3)n3ncc(C#N)c3n2)ccc1N1CCC[C@@H](N)C1` (stereo partly drawn) [Example 24, 5-((4-((R)-3-Aminopiperidin-1-yl)-3-(((R,S)-methylsulfinyl)methyl)phenyl)amino)-7-(cyclopropylamino)pyrazolo[1,5-a]pyrimidine-3-carbonitrile mono trifluoroacetic acid salt], for which the Ki is below 2.5 nM. In turn, `C[S+]([O-])Cc1cc(Nc2cc(NC3CC3)n3ncc(C#N)c3n2)ccc1N1CCC[C@H](N)C1` (stereo partly drawn) [Example 25, 5-((4-((S)-3-Aminopiperidin-1-yl)-3-(((R,S)-methylsulfinyl)methyl)phenyl)amino)-7-(cyclopropylamino)pyrazolo[1,5-a]pyrimidine-3-carbonitrile mono trifluoroacetic acid salt] registered a Ki below 2.5 nM.

Values taken from patent US10227344B2, “CK2 inhibitors, compositions and methods thereof” (Polaris Pharmaceuticals, Inc., priority 2016, dated 2019).
